Experimental data as given in patent publication US20130096193A1, “CREATINE BETA-ALANINATE: A NOVEL SALT FOR INCREASING ATHLETIC PERFORMANCE” (priority 2009, published 2013).
Like-named read-outs stand apart in the source and are kept apart here.

Experiments:
[1] = after 10 week supplementation; cited from earlier work
[2] = cited from earlier work

## NCCC(=O)O [β-alanine, 3-Aminopropanoic acid]
[1]
  increase in intramuscular carnosine content, average: 80.1%
[2]; 10 mg per kg body weight, some individuals
  paraesthesia symptoms: mild symptoms
[2]; 20 mg per kg bodyweight, majority of individuals
  paraesthesia symptoms: significant symptoms
[2]; 40 mg per kg body weight
  paraesthesia symptoms: severe symptoms
[2]; in solution or as powder in gelatin capsules
  ingested amount that causes paraesthesia: above 10 mg per kg body weight
[2]; oral
  duration of paraesthesia: up to 1 hour
  time to beginning of paraesthesia after oral administration: about 20 minutes

## creatine β-alaninate
Human subjects, oral
  additional β-alanine administrable before symptoms of paraesthesia, compared with β-alanine alone: roughly 100%
Human subjects, oral, gelatin capsules, single dose
  single oral dose administered before the onset of paraesthesia was noted: up to 55.00 mg/kg
Salt mass is about 40.45% β-alanine
  equivalent β-alanine dose before onset of paraesthesia: about 22.25 mg/kg
